24 compounds from patent US10669261B2, “Heteroarylhydroxypyrimidinones as agonists of the APJ receptor” (BRISTOL-MYERS SQUIBB COMPANY, priority 2015, dated 2020) can be followed below.

Molecules are shown by their SMILES.

The target in one test is T1, human APJ receptor (Homo sapiens, UniProt P35414).
T1 construct: expressed in transfected cells
T1 sequence (P35414 1-380): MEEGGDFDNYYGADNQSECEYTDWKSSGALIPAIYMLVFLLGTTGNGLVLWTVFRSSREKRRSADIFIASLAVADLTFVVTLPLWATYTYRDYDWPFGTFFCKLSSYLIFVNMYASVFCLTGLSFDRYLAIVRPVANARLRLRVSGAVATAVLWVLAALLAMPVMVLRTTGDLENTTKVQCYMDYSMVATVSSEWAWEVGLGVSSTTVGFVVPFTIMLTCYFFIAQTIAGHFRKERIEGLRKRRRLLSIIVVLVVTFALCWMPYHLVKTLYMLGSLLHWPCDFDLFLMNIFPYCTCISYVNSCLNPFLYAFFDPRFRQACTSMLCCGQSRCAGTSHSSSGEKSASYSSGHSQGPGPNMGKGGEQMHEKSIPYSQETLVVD
The experiment in a line: Intracellular cAMP accumulation assay (APJ hcAMP, HTRF). The class given is cell-based. As to conditions: HEK293 cells stably expressing human APJ receptor; inhibition of forskolin-mediated cAMP production; stated at end of example; read-out: Human APJ cAMP Potency Range. The protocol: Intracellular cAMP Accumulation Assay
HEK293 cells stably expressing human APJ receptor were used to assess the activity of compounds. Cultured cells were detached and resuspended in the cAMP Homogeneous Time-Resolved Fluorescence (HTRF) assay buffer (Cisbio cat; #62AM4PEJ). The assay was performed in 384-well assay plates (Perkin-Elmer; cat #6008289) according to assay protocol provided by the manufacturer. Serial dilutions of a compound together with assay buffer containing […] IBMX and 2 μM forskolin were added to each well containing 5,000 cells and incubated for 30 minutes at room temperature. Subsequently, cAMP D2 reagent was added in the lysis buffer followed by the EuK antibody (Cisbio; cat #62AM4PEJ) and incubated for 60 min. The fluorescence emission ratio was measured using fluorometer. The intracellular cAMP concentrations (compound-stimulated inhibition of forskolin-mediated cAMP production) were calculated by extrapolation from a standard curve using known cAMP concentrations. The EC50 values were obtained by fitting the data to a sigmoidal concentration-response curve with variable slope. The maximal achievable inhibition of forskolin-induced cAMP levels (Ymax) for each compound was expressed as relative percentage of inhibition attained using pyroglutamated apelin-13 ((Pyr1)apelin-13) peptide, which was set to 100%.
The examples disclosed below were tested in the APJ in vitro assays described above and were found having human APJ cyclic AMP (hcAMP) activity. The EC50 value of each compound is presented at the end of the example description.
The biological activity of the exemplified compounds of this invention determined by the assay described above is shown at the end of each example.
On to `CCCCc1nc(=O)c(-c2nnc(Cc3noc4ccccc34)o2)c(O)n1-c1c(OC)cccc1OC` [Example 1, 5-(5-(benzo[d]isoxazol-3-ylmethyl)-1,3,4-oxadiazol-2-yl)-2-butyl-1-(2,6-dimethoxyphenyl)-6-hydroxypyrimidin-4(1H)-one], for which the EC50 is 0.01 to 10 nM.

For `CCCCc1nc(=O)c(-c2nnc(Cc3noc4ccccc34)o2)c(O)n1-c1c(OCC)cccc1OCC` [Example 23, 5-(5-(Benzo[d]isoxazol-3-ylmethyl)-1,3,4-oxadiazol-2-yl)-2-butyl-1-(2,6-diethoxyphenyl)-6-hydroxypyrimidin-4(1H)-one], the EC50 was in the range of 0.01 to 10 nM.

Still in this test, the particulars now being: Table 1; HEK293 cells stably expressing human APJ receptor; read-out: hAPJ cAMP EC50 Potency range.
Take `CCCCc1nc(=O)c(-c2nnc(Cc3ccc(Cl)cc3)o2)c(O)n1-c1c(OC)cccc1OC` [Example 2, 2-butyl-5-{5-[(4-chlorophenyl)methyl]-1,3,4-oxadiazol-2-yl}-1-(2,6-dimethoxyphenyl)-6-hydroxy-1,4-dihydropyrimidin-4-one]: the EC50 lay in the range of 0.01 to 10 nM.

Take `C=CCCc1nc(=O)c(-c2nnc(Cc3noc4ccccc34)o2)c(O)n1-c1c(OC)cccc1OC` [Example 3, 5-[5-(1,2-benzoxazol-3-ylmethyl)-1,3,4-oxadiazol-2-yl]-2-(but-3-en-1-yl)-1-(2,6-dimethoxyphenyl)-6-hydroxy-1,4-dihydropyrimidin-4-one]: the EC50 was in the range of 0.01 to 10 nM.

With `CCCCc1nc(=O)c(-c2nnc(Cc3noc4ccccc34)o2)c(O)n1-c1c(CC)cccc1CC` [Example 4, 5-[5-(1,2-benzoxazol-3-ylmethyl)-1,3,4-oxadiazol-2-yl]-2-butyl-1-(2,6-diethylphenyl)-6-hydroxy-1,4-dihydropyrimidin-4-one], the EC50 is 0.01 to 10 nM.

Regarding `CCCCc1nc(=O)c(-c2nnc(Cc3csc(C)n3)o2)c(O)n1-c1c(OC)cccc1OC` [Example 5, 2-butyl-1-(2,6-dimethoxyphenyl)-6-hydroxy-5-{5-[(2-methyl-1,3-thiazol-4-yl)methyl]-1,3,4-oxadiazol-2-yl}-1,4-dihydropyrimidin-4-one], the EC50 lay in the range of 0.01 to 10 nM.

For the compound `CCCCc1nc(=O)c(-c2nnc(Cn3ccccc3=O)o2)c(O)n1-c1c(OC)cccc1OC` [Example 6, 2-butyl-1-(2,6-dimethoxyphenyl)-6-hydroxy-5-{5-[(2-oxo-1,2-dihydropyridin-1-yl)methyl]-1,3,4-oxadiazol-2-yl}-1,4-dihydropyrimidin-4-one], the EC50 was in the range of 0.01 to 10 nM.

Consider `COc1cccc(OC)c1-n1c(CCC(C)C)nc(=O)c(-c2nnc(CN3CCCC3=O)o2)c1O` [Example 7, 1-(2,6-dimethoxyphenyl)-6-hydroxy-2-(3-methylbutyl)-5-{5-[(2-oxopyrrolidin-1-yl)methyl]-1,3,4-oxadiazol-2-yl}-1,4-dihydropyrimidin-4-one], for which the EC50 is 0.01 to 10 nM.

`CCCCc1nc(=O)c(-c2nnc(CN3CCCC3=O)o2)c(O)n1-c1c(OC)cccc1OC` [Example 8, 2-butyl-1-(2,6-dimethoxyphenyl)-6-hydroxy-5-{5-[(2-oxopyrrolidin-1-yl)methyl]-1,3,4-oxadiazol-2-yl}-1,4-dihydropyrimidin-4-one]: the EC50 fell in the range of 0.01 to 10 nM.

For `CCCCc1nc(=O)c(-c2nnc(Cc3nc(-c4ccccn4)no3)o2)c(O)n1-c1c(OC)cccc1OC` [Example 9, 2-butyl-1-(2,6-dimethoxyphenyl)-6-hydroxy-5-(5-{[3-(pyridin-2-yl)-1,2,4-oxadiazol-5-yl]methyl}-1,3,4-oxadiazol-2-yl)-1,4-dihydropyrimidin-4-one], the EC50 was 0.01 to 10 nM.

On to `COc1cccc(OC)c1-n1c(CCC(C)C)nc(=O)c(-c2nnc(Cn3ccccc3=O)o2)c1O` [Example 10, 1-(2,6-dimethoxyphenyl)-6-hydroxy-2-(3-methylbutyl)-5-{5-[(2-oxo-1,2-dihydropyridin-1-yl)methyl]-1,3,4-oxadiazol-2-yl}-1,4-dihydropyrimidin-4-one], for which the EC50 lay within 0.01 to 10 nM.

Turning to `C=CCCc1nc(=O)c(-c2nnc(Cc3nc(-c4ccccn4)no3)o2)c(O)n1-c1c(OC)cccc1OC` [Example 11, 2-(but-3-en-1-yl)-1-(2,6-dimethoxyphenyl)-6-hydroxy-5-(5-{[3-(pyridin-2-yl)-1,2,4-oxadiazol-5-yl]methyl}-1,3,4-oxadiazol-2-yl)-1,4-dihydropyrimidin-4-one], the EC50 is 0.01 to 10 nM.

In the case of `COc1cccc(OC)c1-n1c(CCCC(F)(F)F)nc(=O)c(-c2nnc(Cc3noc4ccccc34)o2)c1O` [Example 12, 5-[5-(1,2-benzoxazol-3-ylmethyl)-1,3,4-oxadiazol-2-yl]-1-(2,6-dimethoxyphenyl)-6-hydroxy-2-(4,4,4-trifluorobutyl)-1,4-dihydropyrimidin-4-one], the EC50 lay in the range of 0.01 to 10 nM.

As to `CCCCc1nc(=O)c(-c2nnc(Cc3noc4ccccc34)o2)c(O)n1-c1c(C)cccc1OC` [Example 13, 5-[5-(1,2-benzoxazol-3-ylmethyl)-1,3,4-oxadiazol-2-yl]-2-butyl-6-hydroxy-1-(2-methoxy-6-methylphenyl)-1,4-dihydropyrimidin-4-one], the EC50 was in the range of 0.01 to 10 nM.

Turning to `C=CCCc1nc(=O)c(-c2nnc(Cc3ccc(Cl)cc3)o2)c(O)n1-c1c(OC)cccc1OC` [Example 14, 2-(but-3-en-1-yl)-5-{5-[(4-chlorophenyl)methyl]-1,3,4-oxadiazol-2-yl}-1-(2,6-dimethoxyphenyl)-6-hydroxy-1,4-dihydropyrimidin-4-one], the EC50 lay in the range of 0.01 to 10 nM.

In the case of `CCCCc1nc(=O)c(-c2nnc(Cc3noc4ccccc34)o2)c(O)n1-c1c(Br)cccc1Br` [Example 15, 5-[5-(1,2-benzoxazol-3-ylmethyl)-1,3,4-oxadiazol-2-yl]-2-butyl-1-(2,6-dibromophenyl)-6-hydroxy-1,4-dihydropyrimidin-4-one], the EC50 is 0.01 to 10 nM.

As to `COc1cccc(OC)c1-n1c(CCC(C)C)nc(=O)c(-c2nnc(CN3CCOCC3=O)o2)c1O` [Example 16, 4-({5-[1-(2,6-dimethoxyphenyl)-6-hydroxy-2-(3-methylbutyl)-4-oxo-1,4-dihydropyrimidin-5-yl]-1,3,4-oxadiazol-2-yl}methyl)morpholin-3-one], the EC50 was 0.01 to 10 nM.

Consider `C=CCCc1nc(=O)c(-c2nnc(Cc3noc4ccccc34)o2)c(O)n1-c1c(C)cccc1OC` [Example 17, 5-[5-(1,2-benzoxazol-3-ylmethyl)-1,3,4-oxadiazol-2-yl]-2-(but-3-en-1-yl)-6-hydroxy-1-(2-methoxy-6-methylphenyl)-1,4-dihydropyrimidin-4-one], for which the EC50 lay in the range of 0.01 to 10 nM.

As to `CCCCc1nc(=O)c(-c2nnc(Cc3noc4ccccc34)o2)c(O)n1-c1c(OC)ncnc1OC` [Example 18, 5-[5-(1,2-benzoxazol-3-ylmethyl)-1,3,4-oxadiazol-2-yl]-2-butyl-1-(4,6-dimethoxypyrimidin-5-yl)-6-hydroxy-1,4-dihydropyrimidin-4-one], the EC50 lay in the range of 0.01 to 10 nM.

Turning to `CCCCc1nc(=O)c(-c2nnc(Cc3noc4ccccc34)o2)c(O)n1-c1c(Cl)cccc1Cl` [Example 19, 5-[5-(1,2-benzoxazol-3-ylmethyl)-1,3,4-oxadiazol-2-yl]-2-butyl-1-(2,6-dichlorophenyl)-6-hydroxy-1,4-dihydropyrimidin-4-one], the EC50 lay within 0.01 to 10 nM.

Consider `COc1cccc(OC)c1-n1c(CC2CC2)nc(=O)c(-c2nnc(Cc3noc4ccccc34)o2)c1O` [Example 20, 5-[5-(1,2-benzoxazol-3-ylmethyl)-1,3,4-oxadiazol-2-yl]-2-(cyclopropylmethyl)-1-(2,6-dimethoxyphenyl)-6-hydroxy-1,4-dihydropyrimidin-4-one], for which the EC50 was 0.01 to 10 nM.

In the case of `COc1cccc(OC)c1-n1c(CC2CC2)nc(=O)c(-c2nnc(Cc3ccc(Cl)cc3)o2)c1O` [Example 21, 5-{5-[(4-chlorophenyl)methyl]-1,3,4-oxadiazol-2-yl}-2-(cyclopropylmethyl)-1-(2,6-dimethoxyphenyl)-6-hydroxy-1,4-dihydropyrimidin-4-one], the EC50 lay in the range of 0.01 to 10 nM.

As to `COc1cccc(OC)c1-n1c(CC2CC2)nc(=O)c(-c2nnc(Cc3nc(-c4ccccn4)no3)o2)c1O` [Example 22, 2-(cyclopropylmethyl)-1-(2,6-dimethoxyphenyl)-6-hydroxy-5-(5-{[3-(pyridin-2-yl)-1,2,4-oxadiazol-5-yl]methyl}-1,3,4-oxadiazol-2-yl)-1,4-dihydropyrimidin-4-one], the EC50 lay in the range of 0.01 to 10 nM.

The same test, now with this note: Table 2; HEK293 cells stably expressing human APJ receptor; read-out: hAPJ cAMP EC50 Potency range.
With `CCCCc1nc(O)c(-c2nnc(Cc3csc(C)n3)o2)c(=O)n1C(C)c1cccnc1` (racemic) [Example 124, 2-butyl-6-hydroxy-5-{5-[(2-methyl-1,3-thiazol-4-yl)methyl]-1,3,4-oxadiazol-2-yl}-3-[1-(pyridin-3-yl)ethyl]-3,4-dihydropyrimidin-4-one], the EC50 was 100 to 300 nM.
